Consider nine compounds from US6265423A, “Aromatic polycyclic retinoid-type derivatives, method for preparing same, and use thereof for making pharmaceutical and cosmetic compositions” (priority 1996, dated 2001).

For test [1], the system named is human mammary tumoral lineage T-47D. The test is described as follows: Clonogenic test (soft agar), growth of cellular colonies. The test is classed as cell-based. As to conditions: T-47D; for mean number of cellular colonies in relation to control / activity at 0.1 µM / activity at 0.01 µM / activity at 0.001 µM / activity at 0.0001 µM: 21 days, control = 100%; for activity at 0.1 µM / activity at 0.01 µM / activity at 0.001 µM / activity at 0.0001 µM: Homo sapiens, T47D, 504 h, read-out: mean number of cellular colonies in relation to control; for activity at 0.1 µM: 10^-7 M; for effect on growth of cellular colonies (in words): soft agar. From the text: The human tumour stem cells are the clonogenic cells which are the origin of the neoplasic cells which constitute a given tumour. These tumour stem cells are responsible for the recidivism process observable after surgical resection of the primary tumours and are also responsible for the formation of metastases. […] At the level of a tumour or of a tumoral cellular lineage, these clonogenic stem cells distinguish themselves from other clonogenic cells of the tumour or of the neoplasic cellular lineage being considered, by the fact that they preserve their ability to proliferate in the absence of any solid support.
This technique is suitable for the culturing in vitro of most of the tumours and tumoral cellular lineages of various histological types. In the context of this test, the neoplastic cells are cultured on a semi-solid culture medium "soft agar" made up of a mixture of agar and agarose. On this selective support, only tumoral stem cells survive and proliferate. […] The morphological characteristics and the growth of the cellular colonies are also a function of the histological type of the tumours being considered.
These culture conditions are also called "anchorage-independent" conditions.
The base medium "MEM 25 MM HEPES" (Minimum Essential Medium, Life Technologies, Belgium) contains Eagle salts but no L-glutamine. This medium is well suited to the growth of a range of varied diploid cells or primary mammal cells. To this medium is then added:
The tumoral cells are maintained in culture in 25 cm^2 falcon dishes (Life Technologies, Belgium). They are then trypsinised and individualised. Their rate of viability is determined by coloration with trypan blue (Sigma, Belgium). It must be greater than 90%. In the case where this condition is kept to, a cellular suspension at the desired concentration is prepared in a solution of agar at 0. 3%. The cells are then seeded between two layers of agar (Sigma, Belgium) and in 35 mm Petri dishes (Life Technologies, Belgium). The base layer is made up of a 0.5% solution of agar and the top layer is made up of a 0.3% solution of agar. The cupules are then positioned and held in an incubator at 37° C. and 5% of CO2. […] After treatment, the cupules are kept in the incubator for 21 days. It is advisable to examine, during the course of the experiment, the appearance and the increase of the cellular colonies. If after 10 days, no colony appears or is developing, the experiment must be repeated. In the contrary case, on the 21st day, 100 μl of an MTT solution (3-(4,5-dimethylthiazol-2-yl)-2,5 diphenyl tetrazolium bromide; Sigma, Belgium) dissolved in the RPMI culture medium (Roswell park Memorial Institute, Life Technologies, Belgium), at the concentration of 1 mg/ml are deposited on the top layer of the group of cupules. The cells are kept in contact with this solution for a minimum of 3 hours at 37° C.
Using an inverted microscope at low magnification, the number of clones whose surface area is greater thar. 100 μm^2 is determined for the group of cupules representing all the different experimental conditions. Then, for each of these experimental conditions, the mean number of cellular colonies±the standard error on the mean (ESM) is calculated.
The mean number of cellular colonies determined for each experimental condition is expressed as a percentage in relation to the control condition made equal to 100%.

Test [2] concerns T-47D human mammary cancer cells. Nature of the test: MTT test, proliferation of T-47D. As to conditions: Homo sapiens, T47D, T-47D, 72 h, control = 100%, read-out: level of proliferation; for activity at 100 µM: 10^-4 M; for activity at 1 µM: 10^-6 M; for activity at 0.01 µM: 10^-8 M. The test is classed as cell-based. As to the method:
(§1) The cells that were cultured came from the ATCC (American Type Culture Collection).
(§2) The cellular lines are kept in culture in a monolayer at 37° C. in closed culture dishes (Nunc. Gibco BRL, Life Technologies, Belgium) containing the minimum essential medium (MEM, Gibco) supplemented with 5% of Foetal Calf Serum, (FCS, Gibco), 0.6 mg/ml of glutamine (Gibco) and a mixture of 200 IU/mi of penicillin (Gibco), 200 μg/ml of streptomycin (Gibco) and 0.1 mg/ml of gentamycin (Gibco). The foetal calf serum is decomplemented for 1 hour at 56° C.
(§3) This test is based on the mitochondrial reduction by living metabolically active cells of the MTT (3-(4,5-dimethylthiazol-2-yl)-2,5-diphenyltetrazolium bromide) of yellowish colour into a blue coloured product, formazan. The quantity of formazan obtained is directly proportional to the number of living cells. After incubation of the cells for 24 hours in microplates with 96 flat bottomed wells, the culture medium is replaced by 100 μl of fresh culture medium containing the drug to be tested.
(§4) The microplates are then incubated for 3 hours at 37° C. and centrifuged for 10 minutes at 400 g (GPR centrifuge, Beckman). The MTT solution is replaced by 100 μl of dimethylsulphoxide (Merck). The microplates are agitated (Vari-Shaker, Dynatech) for 10 minutes.
(§5) In the microplates, the control cells like the treated cells were incubated in a medium without the compounds to be tested for 24 hours. The control cells are incubated in a medium without a drug throughout the whole experiment, while the treated cells are incubated in different media. These media contain the molecule to be tested at various concentrations: 10^-8 M, 10^-6 M and 10^-4 M. All the tests are carried out in 6 duplicates.
(§6) The statistical comparisons are carried out according to the Fisher Test:
(§7) The mean optical density measured for each experimental condition is expressed as a percentage in relation to the laid down control condition being equal to 100%.
In general terms: Tetrazolium assays rely on reduction of a dye to a coloured formazan, in cell work by metabolically active cells.

Test [3] concerns ZR-75-1 human mammary cancer cells. Nature of the test: MTT test, proliferation of ZR-75-1. As to conditions: Homo sapiens, 72 h, control = 100%, read-out: level of proliferation; for activity at 100 µM: ZR-75-1, 10^-4 M; for activity at 1 µM: ZR-75-1, 10^-6 M; for activity at 0.01 µM: ZR-75-1, 10^-8 M. The test is classed as cell-based. As to the method:
as §1, §2, §3, §4, §5, §6, §7

In test [4] the test system is A549 human pulmonary cancer cells. Nature of the test: MTT test, proliferation of A549. The test is classed as cell-based. As to conditions: Homo sapiens, 72 h, control = 100%, read-out: level of proliferation; for activity at 100 µM: A549, 10^-4 M; for activity at 1 µM: A549, 10^-6 M; for activity at 0.01 µM: A549, 10^-8 M.
The subject of test [5] is A-427 human pulmonary cancer cells. The test is described as follows: MTT test, proliferation of A-427. As to conditions: Homo sapiens, A-427, 72 h, read-out: level of proliferation.

Turning to `Cc1cc2c(cc1/C=C1/CCc3cc(-c4nnn[nH]4)ccc31)C(C)(C)CCC2(C)C` [CB02981], the “mean number of cellular colonies in relation to control” value in test [1] (10^-8 M, 0.01 µM) was found to be 48.8 ± 5.3%; in test [1] (10^-9 M, 0.001 µM), 67.6 ± 8.9%; in test [1] (10^-10 M, 0.0001 µM) it was 80.1 ± 13.2%.
`CC1=C(/C=C/C(C)=C/C=C/C(C)=C/C(=O)Nc2ccc(O)cc2)C(C)(C)CCC1` [CB05764, reference compound]: in test [2], the activity at 100 µM was 0%, the activity at 1 µM turned out to be 66.4% and the activity at 0.01 µM is 82.5%. Also, in test [3], the activity at 100 µM was found to be 0.6%, the activity at 1 µM worked out at 81.9% and the activity at 0.01 µM was determined as 97.3%. Besides, in test [1], the activity at 0.1 µM was 18.8% and the “effect on growth of cellular colonies (in words)” value is “strongly active at concentration 10^-7 M loses its significant inhibiting activity beyond the concentration of 10^-9 M”. Besides, in test [1] (10^-8 M), the activity at 0.01 µM came to 33.6%. In test [1] (10^-9 M), the activity at 0.001 µM amounted to 83.3%. For the same compound, the activity at 0.0001 µM in test [1] (10^-10 M) amounted to 80.3%.
Take `Cc1cc2c(cc1/C=C1\CCc3cc(C(=O)O)ccc31)C(C)(C)CCC2(C)C` [CB40341]: the “mean number of cellular colonies in relation to control” value in test [1] (10^-8 M, 0.01 µM) came out at 65.6 ± 9.5%; in test [1] (10^-9 M, 0.001 µM), 90.8 ± 0.8%; in test [1] (10^-10 M, 0.0001 µM) it was 99.1 ± 9.7%.
For the compound `CC/C(=C(\c1ccccc1)c1ccc(OCCN(C)C)cc1)c1ccccc1` [CB58707, tamoxifen, reference compound], in test [1], the activity at 0.1 µM was 31.3% and the “effect on growth of cellular colonies (in words)” value was “significant inhibition in the growth of these colonies but its activity is not dose dependent”. The activity at 0.01 µM in test [1] (10^-8 M) is 46.9%. Further, the activity at 0.001 µM in test [1] (10^-9 M) was determined as 35.5%. In addition, in test [1] (10^-10 M), the activity at 0.0001 µM turned out to be 56.7%.
Regarding `C/C(=C/c1cc2c(cc1C)C(C)(C)CCC2(C)C)c1ccc(-c2nnn[nH]2)cc1` [CB61692], the activity at 100 µM was 0% in test [4], 0% in test [2], 0.6% in test [5] and 0% in test [3]. Besides, the activity at 1 µM in test [4] was 98.2%; in test [2] it was 93.8%; in test [5], 107%; in test [3], 89.5%. The activity at 0.01 µM in test [4] was found to be 106%; in test [2] it was 106%; in test [5], 105%; in test [3], 93.2%; in test [1] (10^-8 M) it was 55.7 ± 2.6%. Further, the activity at 0.001 µM in test [1] (10^-9 M) was found to be 41.5 ± 5.7%. Further, in test [1] (10^-10 M), the activity at 0.0001 µM is 90.3 ± 4.7%.
In the case of `Cc1cc2c(cc1/C=C(\c1ccc(-c3nnn[nH]3)cc1)C(F)(F)F)C(C)(C)CCC2(C)C` [CB63237, (E) 5-[4-[1-trifluoromethyl-2-(5,6,7,8-tetrahydro-3,5,5,8,8-pentamethyl-2-naphthalenyl)-1-ethenyl]phenyl]-1H-tetrazole], the activity at 100 µM was found to be 2.1% in test [4], 4.1% in test [2], 4.1% in test [5] and 0% in test [3]. Moreover, the activity at 1 µM in test [4] came out at 140%; in test [2] it was 125%; in test [5], 148%; in test [3], 106%. Further, the activity at 0.01 µM is 124% in test [4], 120% in test [2], 88.1% in test [5] and 86.5% in test [3].
For `CCCCCCCOc1cc2c(cc1/C(C)=C/c1ccc(C(=O)O)cc1)C(C)(C)CCS2(=O)=O` [CB65757], the activity at 100 µM in test [4] was found to be 0%; in test [2], 0%; in test [5], 0%; in test [3], 1%. Also, the activity at 1 µM in test [4] is 111%; in test [2], 126%; in test [5] it was 146%; in test [3] it was 118%. Further, the activity at 0.01 µM in test [4] is 108%; in test [2], 124%; in test [5] it was 106%; in test [3] it was 116%.
On to `C/C(=C/c1ccc2c(c1)C(C)(C)CCS2(=O)=O)c1ccc(C(=O)O)cc1` [CB72484], for which the activity at 100 µM in test [4] was determined as 129%; in test [2] it was 99%; in test [5], 182%; in test [3], 129%. In addition, the activity at 1 µM in test [4] amounted to 111%; in test [2] it was 128%; in test [5], 130%; in test [3], 138%. Besides, the activity at 0.01 µM in test [4] is 114%; in test [2], 129%; in test [5], 131%; in test [3], 145%.
Regarding `COc1cc2c(cc1/C(C)=C/c1ccc(C(=O)O)cc1)C(C)(C)CCS2(=O)=O` [CB77787], the activity at 100 µM in test [4] came to 103%; in test [2], 86.3%; in test [5], 163%; in test [3], 93.5%. The activity at 1 µM in test [4] was found to be 125%; in test [2] it was 120%; in test [5], 110%; in test [3], 113%. Also, the activity at 0.01 µM in test [4] was found to be 118%; in test [2], 129%; in test [5] it was 120%; in test [3], 114%.
